Test system: EV miR-221 from NSC34 cells
Test: ddPCR of miR-221-3p in NSC34-derived EV-RNA
Type: cell-based, mouse
Conditions: NSC34-derived EVs, 6 h treatment
Experimental: EVs were isolated from HEK293T, NSC34, and smNPC-derived motor neurons using nickel-based isolation (NBI) or differential ultracentrifugation (UC). NBI protocol was performed as already described. Briefly, after a first centrifugation step at 2800 × g for 10 min, nickel beads were incubated for 30 min with serum-free media collected from cells in a ratio of 25 μl of beads per ml of medium. After a 2 min centrifugation at 600 g, particles were eluted from the beads by adding 1× elution buffer made of Solution A [16 mM ethylenediaminetetraacetic acid (EDTA), UltraPure, pH 8.0, Thermo Fisher] and Solution B (10 mM NaCl, 225 μM citric acid, Sigma–Aldrich) diluted five times in phosphate-buffered saline (PBS). After 15 min incubation at 28°C in a thermoshaker, the EVs were retrieved by 1-min centrifugation at 1800 × g and subjected to the following characterization. NBI was used to recover polydisperse EVs and include the RNA contribution from these for reverse proteomics experiments. The EV-RNA for reverse proteomics was pooled from three consecutive EV isolation procedures performed on a total of 30 T75 flasks (10 flasks each) of NSC34 cells grown until 80% confluence under standard conditions before washing with PBS and incubating with serum-free medium with glutamine and antibiotics. Differential UC was applied as an alternative EV isolation protocol to confirm the detection of hnRNPA2B1 protein. UC was performed by a SW 32 Ti swinging bucket rotor in an Optima XPN-100 ultracentrifuge (Beckman Coulter, Brea, CA, USA). The cell-conditioned serum-free media, after the first centrifugation step at 2800 × g for 10 min, was put in open-top Ultra-Clear centrifuge tubes (Beckman Coulter-344058) and subjected to 100 000 × g (100 K) UC for 70 min at 4°C under vacuum, with or without an additional step at 10 000 × g (10 K) to first sediment larger particles. Then the supernatant was removed, and the pellet was resuspended in 0.22 μm filtered PBS. Differential UC alone, consisting of 2800 × g for 10 min and 100 000 × g for 70 min, was applied for experiments reported in Fig. 5. […]
RNA from cells was extracted using TRI Reagent® (T9424, Sigma) following the manufacturer’s instructions. Thermo Fisher Nanodrop 2000 Spectrophotometer was used to assess the purity and quantity of extracted RNA. […] The elution was in 10–20 μl of RNase-free water and the RNA profiling and quantification was assessed by Agilent 2100 Bioanalyzer and RNA 6000 Pico Kit (5067-1513). Cell- and EV-RNAs were also analysed with DNF-472 HS RNA (15 nt) Kit (Agilent Technologies, Santa Clara, CA), according to the manufacturer. […] Results were analysed with Agilent ProSize data analysis software, that allows the analysis of RNA size, concentration and quality. […]

## O=C1C=C2CC3(O)COc4c(ccc(O)c4O)C3=C2C=C1O (stereo not shown) [H, hematein]
  vesicular miR-221, copy number normalized on Y3 RNA and DMSO: vesicular depletion

Source: PMC11915509, “Small molecule inhibitors of hnRNPA2B1–RNA interactions reveal a predictable sorting of RNA subsets into extracellular vesicles” (Nucleic Acids Research, 2025)
